Columns and labels:
[1] = system: MCF-7 human breast carcinoma cells; assay: Inhibition of the growth of MCF-7 human breast carcinoma cells; type: cell-based; details: for IC50: Homo sapiens, MCF7, inhibition of cell growth, cells grown for 96 h, read-out: MCF-7 IC50 ± SD
Experimental: The methodology for the evaluation of the growth of human MCF-7 breast carcinoma cells was previously described, except that cells were grown for 96 h for IC50 determinations.[66] U-87 MG and OVCAR-3 proliferation assays were performed plating 10^4 cells/cm^2 in a Multiwell 24. The day after, cells were treated with compound 15, and DMSO was used as a control. Cells were counted 48 h later with a Bürker counting chamber, after dilution in TrypanBlue (#T6146 Sigma-Aldrich).

[2] = system: tubulin; assay: Inhibition of tubulin polymerization (assembly assay); type: biochemical; details: tubulin at 10 μM, read-out: Tubulin IC50 ± SD
Experimental: (§1) The assembly reaction mixtures contained 0.8 M monosodium glutamate (pH 6.6 with HCl in a 2 M stock solution), 10 μM tubulin, 4% (v/v) DMSO, and varying concentrations of the drug. Following a 15 min preincubation at 30 °C, samples were chilled on ice, GTP to 0.4 mM was added, and turbidity development was followed at 350 nm in a temperature-controlled recording spectrophotometer for 20 min at 30 °C. The extent of reaction was measured. Full experimental details were previously described.[63] For the colchicine binding assay, reaction mixtures contained 1.0 μM tubulin, 5.0 μM [^3H]colchicine, and 5.0 or 1.0 μM inhibitor and were incubated for 10 min at 37 °C. Complete details were described previously.[64]

[3] = system: tubulin; assay: Inhibition of [3H]colchicine binding to tubulin; details: for Inhib. colch. binding 1-5-5 (% ± SD): inhibitor at 1:5:5 μM
Experimental: as §1

[4] = Metabolic stability in human liver microsomes; type: in vitro ADME; details: HLM 0.5 mg/mL, 1 μM, n = 2
Experimental: (§2) Mouse (Sigma Aldrich, CD-1 male, pooled) and human microsomes (Sigma Aldrich, human, pooled) at 0.5 mg/mL were preincubated with the test compound 15 dissolved in DMSO at 1 μM in phosphate buffer 50 mM, pH 7.4, and 3 mM MgCl2 for 10 min at 37 °C. The reaction was then started by adding the cofactor mixture solution (NADP, glucose-6-phosphate, glucose-6-phosphate dehydrogenase in 2% NaHCO3). Samples were taken at 0, 10, 30, 45, and 60 min and added to acetonitrile to stop the reaction. Samples were then centrifuged, and the supernatant was analyzed by LC–MS/MS to quantify the amount of the compound. A control sample without the cofactor was always added to check the chemical stability of the test compound. […] A fixed concentration of verapamil was added in every sample as an internal standard for LC–MS/MS analyses. The percentage of the area of the test compound remaining at the various incubation times was calculated with respect to the area of the compound at time 0 min.
(§3) The rate constant, k (min^–1), derived for the exponential decay equation (peak area/IS vs time), was used to calculate the rate of Cli.
(§4) Samples were analyzed under the following conditions: UPLC Waters coupled with an API 3200 triple-quadrupole (ABSciex); eluents, (phase A) 95% water, 5% acetonitrile + 0.1% HCOOH, (phase B) 5% water, 95% acetonitrile + 0.1% HCOOH; flow rate, 0.3 mL/min; column, Gemini-Nx 5 μm C18 110A (50 × 2.00 mm) at 35 °C; injection volume, 10 μL. Source conditions ESI positive: T 400 °C, Gas 1 30, Gas 2 35, CUR 30, IS 5500, CAD 5.

[5] = Metabolic stability in mouse liver microsomes; type: in vitro ADME; details: MLM 0.5 mg/mL, 1 μM, n = 2
Experimental: as §2, §3, §4

| SMILES | IC50 [1] | IC50 [2] | Inhib. colch. binding 1-5-5 (% ± SD) [3] | Cli ± SD [4] | t1/2 ± SD [4] | Cli ± SD [5] | half-life at 1 h, 1 µM ([5]; male, CD-1, mouse, liver microsomes, pH 7.4, read-out: t1/2 ± SD) | melting point | Inhibition of [3H]colchicine binding 1:5:1 ([3]; inhibitor at 1:5:1 μM, 1 µM) | Inhibition of MCF-7 cell growth (in words) [1] |
| --- | --- | --- | --- | --- | --- | --- | --- | --- | --- | --- |
| CCOc1ccc2ccc(=O)oc2c1 [Compound 7-EC, 7-ethoxycoumarin, reference compound] | – | – | – | 231.3 ± 37.5 μL/min/mg protein | 6.1 ± 1.0 min | 710.8 ± 1.2 μL/min/mg protein | 2 ± 0.1 min | – | – | – |
| COc1cc(C(=O)c2ccn(-c3ncccn3)c2)cc(OC)c1OC [Compound 5, (1-(Pyrimidin-2-yl)-1H-pyrrol-3-yl)(3,4,5-trimethoxyphenyl)methanone] | 220 nM | 490 ± 10 nM | 82 ± 1% | – | – | – | – | – | – | – |
| COc1cc(C(=O)c2cn(-c3cccnc3)cc2-c2ccccc2)cc(OC)c1OC [Compound 7, (4-Phenyl-1-(pyridin-3-yl)-1H-pyrrol-3-yl)(3,4,5-trimethoxyphenyl)methanone] | 50 ± 10 nM | 740 ± 10 nM | 52 ± 5% | – | – | – | – | 171 to 173 °C | – | – |
| COc1cc(C(=O)c2ccn(-c3ccncc3)c2)cc(OC)c1OC [Compound 4, (1-(Pyridin-4-yl)-1H-pyrrol-3-yl)(3,4,5-trimethoxyphenyl)methanone] | 2500 ± 70 nM | > 20000 nM | 1.4 ± 5% | – | – | – | – | – | – | – |
| COc1cc(C(=O)c2ccn(-c3ccccn3)c2)cc(OC)c1OC [Compound 2, (1-(Pyridin-2-yl)-1H-pyrrol-3-yl)(3,4,5-trimethoxyphenyl)methanone] | 1100 ± 300 nM | 480 ± 100 nM | 83 ± 0.4% | – | – | – | – | 120 to 125 °C | – | – |
| COc1cc(C(=O)c2cn(-c3ccccn3)cc2-c2ccccc2)cc(OC)c1OC [Compound 6, (4-Phenyl-1-(pyridin-2-yl)-1H-pyrrol-3-yl)(3,4,5-trimethoxyphenyl)methanone] | 18 ± 2 nM | 430 ± 1 nM | 92 ± 0.5% | – | – | – | – | 150 to 152 °C | – | – |
| COc1cc(C(=O)c2ccn(-c3cccnc3)c2)cc(OC)c1OC [Compound 3, (1-(Pyridin-3-yl)-1H-pyrrol-3-yl)(3,4,5-trimethoxyphenyl)methanone] | 2500 ± 70 nM | 1200 ± 100 nM | 38 ± 3% | – | – | – | – | – | – | – |
| COc1cc(C(=O)c2cn(-c3cccnc3)cc2-c2ccco2)cc(OC)c1OC [Compound 10, (4-(Furan-2-yl)-1-(pyridin-3-yl)-1H-pyrrol-3-yl)(3,4,5-trimethoxyphenyl)methanone] | 39 ± 2 nM | 1100 ± 20 nM | 77 ± 0.1% | – | – | – | – | – | – | – |
| COc1cc(C(=O)c2cn(-c3ccncc3)cc2-c2ccccc2)cc(OC)c1OC [Compound 8, (4-Phenyl-1-(pyridin-4-yl)-1H-pyrrol-3-yl)(3,4,5-trimethoxyphenyl)methanone] | 2700 ± 500 nM | 6700 ± 100 nM | 17 ± 4% | – | – | – | – | – | – | weak inhibitors |
| COc1cc(C(=O)c2cn(-c3ccccn3)cc2-c2ccco2)cc(OC)c1OC [Compound 9, (4-(Furan-2-yl)-1-(pyridin-2-yl)-1H-pyrrol-3-yl)(3,4,5-trimethoxyphenyl)methanone] | 18 ± 4 nM | 740 nM | 95 ± 0.9% | – | – | – | – | – | 69% | – |

The next lines start with results.

| IC50 [1] | IC50 [2] | Inhib. colch. binding 1-5-5 (% ± SD) [3] | Cli ± SD [4] | t1/2 ± SD [4] | Cli ± SD [5] | half-life at 1 h, 1 µM ([5]; male, CD-1, mouse, liver microsomes, pH 7.4, read-out: t1/2 ± SD) | melting point | Inhibition of [3H]colchicine binding 1:5:1 ([3]; inhibitor at 1:5:1 μM, 1 µM) | SMILES | Inhibition of MCF-7 cell growth (in words) [1] |
| --- | --- | --- | --- | --- | --- | --- | --- | --- | --- | --- |
| 25 ± 8 nM | 690 ± 100 nM | 88 ± 2% | – | – | – | – | – | – | COc1cc(C(=O)c2cn(-c3ncccn3)cc2-c2ccccc2)cc(OC)c1OC [Compound 13, (4-Phenyl-1-(pyrimidin-2-yl)-1H-pyrrol-3-yl)(3,4,5-trimethoxyphenyl)methanone] | strong inhibition |
| 500 ± 70 nM | 3800 ± 700 nM | 35 ± 3% | – | – | – | – | – | – | COc1cc(C(=O)c2cn(-c3ccncc3)cc2-c2ccco2)cc(OC)c1OC [Compound 11, (4-(Furan-2-yl)-1-(pyridin-4-yl)-1H-pyrrol-3-yl)(3,4,5-trimethoxyphenyl)methanone] | weak inhibitors |
| 580 ± 30 nM | 6700 ± 900 nM | 19 ± 2% | – | – | – | – | – | – | COc1cc(C(=O)c2cn(-c3cncnc3)cc2-c2ccco2)cc(OC)c1OC [Compound 16, (4-(Furan-2-yl)-1-(pyrimidin-5-yl)-1H-pyrrol-3-yl)(3,4,5-trimethoxyphenyl)methanone] | poor inhibitors |
| > 5000 nM | > 20000 nM | 4.7 ± 5% | – | – | – | – | – | – | COc1cc(C(=O)c2cn(-c3cncnc3)cc2-c2ccccc2)cc(OC)c1OC [Compound 14, (4-Phenyl-1-(pyrimidin-5-yl)-1H-pyrrol-3-yl)(3,4,5-trimethoxyphenyl)methanone] | poor inhibitors |
| 29 ± 1 nM | 910 ± 50 nM | 86 ± 2% | – | – | – | – | – | – | COc1cc(C(=O)c2cn(-c3cnccn3)cc2-c2ccco2)cc(OC)c1OC [Compound 12, (4-(Furan-2-yl)-1-(pyrazin-2-yl)-1H-pyrrol-3-yl)(3,4,5-trimethoxyphenyl)methanone] | strong inhibition |

— publication PMC9743090, “Induction of Ferroptosis in Glioblastoma and Ovarian Cancers by a New Pyrrole Tubulin Assembly Inhibitor” (Journal of Medicinal Chemistry, 2022)
